Data taken from ChEMBL document CHEMBL4507316 (2021).

What was measured:
[1] = system: Tyrosine-protein kinase ABL1 (Homo sapiens), P00519 [F317I]; test: ABL1 F317I ProQinase selectivity panel; details: Compound concentration 1.0 uM
[2] = system: Tyrosine-protein kinase ABL1 (Homo sapiens), P00519 [T315I]; test: ABL1 T315I ProQinase selectivity panel; details: Compound concentration 1.0 uM
[3] = biological target: Tyrosine-protein kinase ABL1 (Homo sapiens) (UniProt P00519); test: ABL1 wt ProQinase selectivity panel; details: Compound concentration 1.0 uM
[4] = biological target: Activin receptor type-1B (Homo sapiens) (UniProt P36896); test: ACV-R1B ProQinase selectivity panel; details: Compound concentration 1.0 uM
Activin receptor type-1B (Homo sapiens), sequence (P36896 whole entry): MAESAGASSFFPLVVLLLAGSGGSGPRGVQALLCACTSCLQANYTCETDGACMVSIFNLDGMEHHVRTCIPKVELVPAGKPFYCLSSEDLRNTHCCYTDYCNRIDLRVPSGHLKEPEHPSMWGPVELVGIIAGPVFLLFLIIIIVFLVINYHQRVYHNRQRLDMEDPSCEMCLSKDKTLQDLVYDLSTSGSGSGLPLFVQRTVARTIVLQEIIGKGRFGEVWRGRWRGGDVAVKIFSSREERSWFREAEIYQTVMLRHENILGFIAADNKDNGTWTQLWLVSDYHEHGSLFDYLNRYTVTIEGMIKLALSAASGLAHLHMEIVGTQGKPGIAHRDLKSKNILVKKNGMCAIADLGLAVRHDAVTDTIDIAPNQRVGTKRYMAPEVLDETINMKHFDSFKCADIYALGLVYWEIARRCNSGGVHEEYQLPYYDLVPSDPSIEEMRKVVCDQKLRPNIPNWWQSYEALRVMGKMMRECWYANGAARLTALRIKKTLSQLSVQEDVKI

[5] = biological target: Activin receptor type-1-like (Homo sapiens) (UniProt P37023); test: ACV-RL1 ProQinase selectivity panel; details: Compound concentration 1.0 uM
[6] = biological target: Mitogen-activated protein kinase kinase kinase 5 (Homo sapiens) (UniProt Q99683); test: ASK1 ProQinase selectivity panel; details: Compound concentration 1.0 uM
[7] = system: Serine/threonine-protein kinase B-raf (Homo sapiens), P15056 [V600E]; test: B-RAF V600E ProQinase selectivity panel; details: Compound concentration 1.0 uM
[8] = biological target: Calcium/calmodulin-dependent protein kinase type II subunit alpha (Homo sapiens) (UniProt Q9UQM7); test: CAMK2A ProQinase selectivity panel; details: Compound concentration 1.0 uM
[9] = biological target: Cyclin-dependent kinase 1/cyclin B (Homo sapiens) (UniProt P06493+P14635+Q8WWL7+O95067); test: CDK1/CycB1 ProQinase selectivity panel; assay type: protein-complex assay; details: Compound concentration 1.0 uM
[10] = biological target: Cyclin-dependent kinase 5/CDK5 activator 1 (Homo sapiens) (UniProt Q00535+Q15078); test: CDK5/p35NCK ProQinase selectivity panel; assay type: protein-complex assay; details: Compound concentration 1.0 uM
Cyclin-dependent kinase 5/CDK5 activator 1 (Homo sapiens), sequence (Q00535 whole entry): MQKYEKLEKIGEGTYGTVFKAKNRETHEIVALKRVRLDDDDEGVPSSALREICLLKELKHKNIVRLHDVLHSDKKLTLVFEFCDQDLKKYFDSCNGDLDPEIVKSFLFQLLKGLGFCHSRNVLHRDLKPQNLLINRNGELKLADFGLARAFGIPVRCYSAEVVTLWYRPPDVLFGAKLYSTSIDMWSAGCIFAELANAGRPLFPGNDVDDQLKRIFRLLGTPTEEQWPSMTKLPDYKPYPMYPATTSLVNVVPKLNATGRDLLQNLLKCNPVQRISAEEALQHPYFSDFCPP
Cyclin-dependent kinase 5/CDK5 activator 1 (Homo sapiens), sequence (Q15078 99-307 partner limits assumed): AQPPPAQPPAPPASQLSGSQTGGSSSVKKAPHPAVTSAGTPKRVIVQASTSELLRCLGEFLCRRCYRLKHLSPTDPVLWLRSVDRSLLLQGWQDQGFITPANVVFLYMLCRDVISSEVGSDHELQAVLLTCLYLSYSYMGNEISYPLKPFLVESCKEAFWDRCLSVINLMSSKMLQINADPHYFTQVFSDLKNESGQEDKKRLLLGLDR

[11] = biological target: Serine/threonine-protein kinase Chk1 (Homo sapiens) (UniProt O14757); test: CHK1 ProQinase selectivity panel; details: Compound concentration 1.0 uM
[12] = biological target: Casein kinase II subunit alpha (Homo sapiens) (UniProt P68400); test: CK2-alpha1 ProQinase selectivity panel; details: Compound concentration 1.0 uM
[13] = biological target: Dual specificity protein kinase CLK4 (Homo sapiens) (UniProt Q9HAZ1); test: CLK4 ProQinase selectivity panel; details: Compound concentration 1.0 uM
[14] = biological target: Tyrosine-protein kinase CSK (Homo sapiens) (UniProt P41240); test: CSK ProQinase selectivity panel; details: Compound concentration 1.0 uM
[15] = biological target: Ephrin type-A receptor 5 (Homo sapiens) (UniProt P54756); test: EPHA5 ProQinase selectivity panel; details: Compound concentration 1.0 uM
[16] = biological target: Tyrosine-protein kinase Fgr (Homo sapiens) (UniProt P09769); test: FGR ProQinase selectivity panel; details: Compound concentration 1.0 uM
Tyrosine-protein kinase Fgr (Homo sapiens), sequence (P09769 2-529 limits assumed): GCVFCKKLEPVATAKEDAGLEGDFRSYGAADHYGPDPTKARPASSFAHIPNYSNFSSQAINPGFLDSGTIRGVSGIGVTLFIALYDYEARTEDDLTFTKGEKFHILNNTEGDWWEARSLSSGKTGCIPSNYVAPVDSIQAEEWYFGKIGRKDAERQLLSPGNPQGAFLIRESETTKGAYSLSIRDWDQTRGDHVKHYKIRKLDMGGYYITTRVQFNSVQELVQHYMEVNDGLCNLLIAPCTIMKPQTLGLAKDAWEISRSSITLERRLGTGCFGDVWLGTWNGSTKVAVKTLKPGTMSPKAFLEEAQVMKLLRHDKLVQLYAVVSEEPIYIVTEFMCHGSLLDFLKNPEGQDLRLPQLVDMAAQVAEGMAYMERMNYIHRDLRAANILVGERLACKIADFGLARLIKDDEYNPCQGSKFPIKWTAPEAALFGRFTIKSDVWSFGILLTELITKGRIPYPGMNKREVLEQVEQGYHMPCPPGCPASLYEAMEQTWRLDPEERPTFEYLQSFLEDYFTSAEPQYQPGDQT

[17] = biological target: G protein-coupled receptor kinase 6 (Homo sapiens) (UniProt P43250); test: GRK6 ProQinase selectivity panel; details: Compound concentration 1.0 uM
G protein-coupled receptor kinase 6 (Homo sapiens), sequence (P43250 whole entry, looked up): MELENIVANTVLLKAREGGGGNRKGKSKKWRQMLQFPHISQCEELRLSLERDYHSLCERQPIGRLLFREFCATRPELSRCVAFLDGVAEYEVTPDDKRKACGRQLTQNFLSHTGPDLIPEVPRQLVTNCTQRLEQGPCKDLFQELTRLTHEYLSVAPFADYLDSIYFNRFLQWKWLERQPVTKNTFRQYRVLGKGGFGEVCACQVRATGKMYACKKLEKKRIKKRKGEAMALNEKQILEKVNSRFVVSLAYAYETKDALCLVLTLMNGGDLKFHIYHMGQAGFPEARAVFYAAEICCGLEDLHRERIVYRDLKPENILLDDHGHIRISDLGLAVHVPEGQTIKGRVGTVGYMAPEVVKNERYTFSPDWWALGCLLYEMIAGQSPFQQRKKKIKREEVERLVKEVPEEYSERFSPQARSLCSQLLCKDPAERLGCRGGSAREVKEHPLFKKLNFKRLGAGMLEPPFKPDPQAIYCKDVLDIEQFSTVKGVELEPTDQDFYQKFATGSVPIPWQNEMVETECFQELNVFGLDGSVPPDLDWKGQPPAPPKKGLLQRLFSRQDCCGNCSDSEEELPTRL

[18] = biological target: Rhodopsin kinase GRK7 (Homo sapiens) (UniProt Q8WTQ7); test: GRK7 ProQinase selectivity panel; details: Compound concentration 1.0 uM
[19] = biological target: Glycogen synthase kinase-3 alpha (Homo sapiens) (UniProt P49840); test: GSK3-alpha ProQinase selectivity panel; details: Compound concentration 1.0 uM
[20] = biological target: Homeodomain-interacting protein kinase 2 (Homo sapiens) (UniProt Q9H2X6); test: HIPK2 ProQinase selectivity panel; details: Compound concentration 1.0 uM
[21] = biological target: Interleukin-1 receptor-associated kinase 1 (Homo sapiens) (UniProt P51617); test: IRAK1 ProQinase selectivity panel; details: Compound concentration 1.0 uM
[22] = biological target: Tyrosine-protein kinase Lck (Homo sapiens) (UniProt P06239); test: LCK ProQinase selectivity panel; details: Compound concentration 1.0 uM
[23] = system: Leucine-rich repeat serine/threonine-protein kinase 2 (Homo sapiens), Q5S007 [R1441C]; test: LRRK2 R1441C ProQinase selectivity panel; details: Compound concentration 1.0 uM
[24] = biological target: MAP/microtubule affinity-regulating kinase 3 (Homo sapiens) (UniProt P27448); test: MARK3 ProQinase selectivity panel; details: Compound concentration 1.0 uM
[25] = biological target: Mitogen-activated protein kinase kinase kinase 3 (Homo sapiens) (UniProt Q99759); test: MEKK3 ProQinase selectivity panel; details: Compound concentration 1.0 uM
[26] = biological target: Maternal embryonic leucine zipper kinase (Homo sapiens) (UniProt Q14680); test: MELK ProQinase selectivity panel; details: Compound concentration 1.0 uM
Maternal embryonic leucine zipper kinase (Homo sapiens), sequence (Q14680 whole entry, looked up): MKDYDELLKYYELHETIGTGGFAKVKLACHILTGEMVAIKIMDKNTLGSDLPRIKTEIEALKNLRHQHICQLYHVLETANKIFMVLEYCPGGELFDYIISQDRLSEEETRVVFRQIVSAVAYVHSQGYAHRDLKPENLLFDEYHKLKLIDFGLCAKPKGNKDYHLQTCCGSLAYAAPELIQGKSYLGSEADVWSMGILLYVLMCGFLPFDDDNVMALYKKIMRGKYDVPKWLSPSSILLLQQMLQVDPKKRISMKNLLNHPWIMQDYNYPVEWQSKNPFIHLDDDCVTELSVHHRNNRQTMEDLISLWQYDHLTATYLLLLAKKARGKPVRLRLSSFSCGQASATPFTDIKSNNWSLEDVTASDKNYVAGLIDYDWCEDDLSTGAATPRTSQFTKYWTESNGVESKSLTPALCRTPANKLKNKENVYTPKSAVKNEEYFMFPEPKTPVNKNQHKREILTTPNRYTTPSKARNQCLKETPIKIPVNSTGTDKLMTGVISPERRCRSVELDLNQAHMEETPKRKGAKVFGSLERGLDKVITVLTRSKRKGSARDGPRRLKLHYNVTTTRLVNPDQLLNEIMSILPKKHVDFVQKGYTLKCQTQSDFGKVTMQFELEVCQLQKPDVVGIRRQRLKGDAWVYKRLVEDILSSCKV

[27] = system: Hepatocyte growth factor receptor (Homo sapiens), P08581 [F1200I]; test: MET F1200I ProQinase selectivity panel; details: Compound concentration 1.0 uM
[28] = biological target: Muscle, skeletal receptor tyrosine-protein kinase (Homo sapiens) (UniProt O15146); test: MUSK ProQinase selectivity panel; details: Compound concentration 1.0 uM
[29] = biological target: Serine/threonine-protein kinase Nek7 (Homo sapiens) (UniProt Q8TDX7); test: NEK7 ProQinase selectivity panel; details: Compound concentration 1.0 uM
[30] = biological target: Serine/threonine-protein kinase NLK (Homo sapiens) (UniProt Q9UBE8); test: NLK ProQinase selectivity panel; details: Compound concentration 1.0 uM
Serine/threonine-protein kinase NLK (Homo sapiens), sequence (Q9UBE8 whole entry): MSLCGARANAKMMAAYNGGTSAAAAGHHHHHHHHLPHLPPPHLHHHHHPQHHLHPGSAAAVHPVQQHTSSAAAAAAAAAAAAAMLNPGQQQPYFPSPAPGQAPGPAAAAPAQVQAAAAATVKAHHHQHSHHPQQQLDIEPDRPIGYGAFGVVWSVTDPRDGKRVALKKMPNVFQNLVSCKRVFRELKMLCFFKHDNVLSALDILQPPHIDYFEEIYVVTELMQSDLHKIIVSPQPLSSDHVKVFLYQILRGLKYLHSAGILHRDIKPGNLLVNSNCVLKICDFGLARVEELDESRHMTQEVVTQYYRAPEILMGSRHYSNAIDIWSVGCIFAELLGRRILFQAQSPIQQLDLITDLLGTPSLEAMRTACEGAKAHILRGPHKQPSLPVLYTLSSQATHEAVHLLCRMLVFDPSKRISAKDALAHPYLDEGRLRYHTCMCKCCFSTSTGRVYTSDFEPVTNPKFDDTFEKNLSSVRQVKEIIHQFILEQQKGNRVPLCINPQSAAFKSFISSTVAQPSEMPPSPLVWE

[31] = biological target: Mitogen-activated protein kinase 11 (Homo sapiens, UniProt Q15759); test: p38-beta ProQinase selectivity panel; details: Compound concentration 1.0 uM
Mitogen-activated protein kinase 11, sequence (Q15759 whole entry): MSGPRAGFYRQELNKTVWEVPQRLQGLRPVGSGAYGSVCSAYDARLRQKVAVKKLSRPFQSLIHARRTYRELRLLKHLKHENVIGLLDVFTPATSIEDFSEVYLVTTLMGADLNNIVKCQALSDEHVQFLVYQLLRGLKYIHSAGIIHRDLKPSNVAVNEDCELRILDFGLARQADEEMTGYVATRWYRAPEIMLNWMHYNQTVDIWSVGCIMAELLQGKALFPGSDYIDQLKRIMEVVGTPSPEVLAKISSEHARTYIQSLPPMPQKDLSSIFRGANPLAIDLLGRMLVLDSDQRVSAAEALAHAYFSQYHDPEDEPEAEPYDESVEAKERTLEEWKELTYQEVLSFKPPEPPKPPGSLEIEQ

[32] = biological target: Mitogen-activated protein kinase 13 (Homo sapiens) (UniProt O15264); test: p38-delta ProQinase selectivity panel; details: Compound concentration 1.0 uM
[33] = biological target: Protein kinase C eta type (Homo sapiens) (UniProt P24723); test: PKC-eta ProQinase selectivity panel; details: Compound concentration 1.0 uM
[34] = biological target: Serine/threonine-protein kinase PLK3 (Homo sapiens) (UniProt Q9H4B4); test: PLK3 ProQinase selectivity panel; details: Compound concentration 1.0 uM
[35] = biological target: Rho-associated protein kinase 1 (Homo sapiens) (UniProt Q13464); test: ROCK1 ProQinase selectivity panel; details: Compound concentration 1.0 uM
[36] = biological target: Macrophage-stimulating protein receptor (Homo sapiens) (UniProt Q04912); test: RON ProQinase selectivity panel; details: Compound concentration 1.0 uM
[37] = biological target: NUAK family SNF1-like kinase 2 (Homo sapiens) (UniProt Q9H093); test: SNARK ProQinase selectivity panel; details: Compound concentration 1.0 uM
[38] = biological target: Proto-oncogene tyrosine-protein kinase Src (Homo sapiens) (UniProt P12931); test: SRC ProQinase selectivity panel; details: Compound concentration 1.0 uM
[39] = biological target: SRSF protein kinase 2 (Homo sapiens) (UniProt P78362); test: SRPK2 ProQinase selectivity panel; details: Compound concentration 1.0 uM
SRSF protein kinase 2 (Homo sapiens), sequence (P78362 whole entry, looked up): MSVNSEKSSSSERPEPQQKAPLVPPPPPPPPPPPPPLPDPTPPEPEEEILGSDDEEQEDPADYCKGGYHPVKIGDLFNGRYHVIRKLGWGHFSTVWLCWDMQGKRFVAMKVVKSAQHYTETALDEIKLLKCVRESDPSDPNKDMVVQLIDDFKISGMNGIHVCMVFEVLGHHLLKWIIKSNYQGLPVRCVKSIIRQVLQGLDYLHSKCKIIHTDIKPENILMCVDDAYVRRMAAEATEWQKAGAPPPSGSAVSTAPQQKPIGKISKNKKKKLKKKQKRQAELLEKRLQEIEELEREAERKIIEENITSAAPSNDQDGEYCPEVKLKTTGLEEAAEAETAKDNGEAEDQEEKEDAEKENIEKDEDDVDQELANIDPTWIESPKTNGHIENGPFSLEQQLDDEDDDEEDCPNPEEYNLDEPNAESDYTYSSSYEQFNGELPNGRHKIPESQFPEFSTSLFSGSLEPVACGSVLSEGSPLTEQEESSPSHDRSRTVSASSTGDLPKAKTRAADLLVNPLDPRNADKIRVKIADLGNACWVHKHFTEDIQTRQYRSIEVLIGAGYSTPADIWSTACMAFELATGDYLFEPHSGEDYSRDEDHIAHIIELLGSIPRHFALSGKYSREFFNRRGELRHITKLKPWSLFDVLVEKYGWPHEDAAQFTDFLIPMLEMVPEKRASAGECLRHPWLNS

[40] = biological target: SRSF protein kinase 3 (Homo sapiens) (UniProt Q9UPE1); test: STK23 ProQinase selectivity panel; details: Compound concentration 1.0 uM
SRSF protein kinase 3 (Homo sapiens), sequence (Q9UPE1 whole entry): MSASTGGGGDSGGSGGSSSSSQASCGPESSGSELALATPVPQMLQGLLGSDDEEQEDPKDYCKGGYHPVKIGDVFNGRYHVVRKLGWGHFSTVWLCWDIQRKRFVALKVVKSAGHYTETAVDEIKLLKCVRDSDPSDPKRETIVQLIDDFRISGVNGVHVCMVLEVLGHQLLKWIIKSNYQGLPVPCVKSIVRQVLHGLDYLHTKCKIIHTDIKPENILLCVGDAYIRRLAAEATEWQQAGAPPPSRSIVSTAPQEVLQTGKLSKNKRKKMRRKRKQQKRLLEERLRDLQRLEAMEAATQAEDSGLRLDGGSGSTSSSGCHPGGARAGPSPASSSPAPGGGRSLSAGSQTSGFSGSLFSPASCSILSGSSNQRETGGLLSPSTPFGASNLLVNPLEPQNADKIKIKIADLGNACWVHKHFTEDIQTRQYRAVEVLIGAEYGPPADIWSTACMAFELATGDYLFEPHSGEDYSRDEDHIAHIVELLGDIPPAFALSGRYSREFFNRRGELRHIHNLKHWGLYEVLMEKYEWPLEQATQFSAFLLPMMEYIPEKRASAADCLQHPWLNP

[41] = biological target: Alpha-1B adrenergic receptor (Homo sapiens) (UniProt P35368); details: Compound concentration 10.0 uM
[42] = biological target: Alpha-2B adrenergic receptor (Homo sapiens) (UniProt P18089); details: Compound concentration 10.0 uM
[43] = biological target: Beta-1 adrenergic receptor (Homo sapiens) (UniProt P08588); details: Compound concentration 10.0 uM
[44] = biological target: Muscarinic acetylcholine receptor M1 (Homo sapiens) (UniProt P11229); details: Compound concentration 10.0 uM
[45] = biological target: Muscarinic acetylcholine receptor M2 (Homo sapiens) (UniProt P08172); details: Compound concentration 10.0 uM
[46] = biological target: Muscarinic acetylcholine receptor M3 (Homo sapiens) (UniProt P20309); details: Compound concentration 10.0 uM
[47] = biological target: Muscarinic acetylcholine receptor M4 (Homo sapiens) (UniProt P08173); details: Compound concentration 10.0 uM
[48] = biological target: Sigma non-opioid intracellular receptor 1 (Homo sapiens) (UniProt Q99720); details: Compound concentration 10.0 uM
[49] = biological target: 3-phosphoinositide-dependent protein kinase 1 (Homo sapiens) (UniProt O15530); test: PDK1 ProQinase selectivity panel; details: Compound concentration 1.0 uM

O=C1c2ccc(Nc3ccc(F)cc3F)cc2CCc2ccc(OC[C@H](O)CO)cc21 [Skepinone-L]
inactive: % Residual activity with Skepinone-L [1] 102% | % Residual activity with Skepinone-L [2] 93% | % Residual activity with Skepinone-L [3] 95% | % Residual activity with Skepinone-L [4] 77% | % Residual activity with Skepinone-L [5] 105% | % Residual activity with Skepinone-L [6] 103% | % Residual activity with Skepinone-L [7] 135% | % Residual activity with Skepinone-L [8] 83% | % Residual activity with Skepinone-L [9] 83% | % Residual activity with Skepinone-L [10] 90% | % Residual activity with Skepinone-L [11] 94% | % Residual activity with Skepinone-L [12] 95% | % Residual activity with Skepinone-L [13] 100% | % Residual activity with Skepinone-L [14] 111% | % Residual activity with Skepinone-L [15] 132% | % Residual activity with Skepinone-L [16] 100% | % Residual activity with Skepinone-L [17] 82% | % Residual activity with Skepinone-L [18] 107% | % Residual activity with Skepinone-L [19] 93% | % Residual activity with Skepinone-L [20] 104% | % Residual activity with Skepinone-L [21] 101% | % Residual activity with Skepinone-L [22] 102% | % Residual activity with Skepinone-L [23] 89% | % Residual activity with Skepinone-L [24] 95% | % Residual activity with Skepinone-L [25] 96% | % Residual activity with Skepinone-L [26] 81% | % Residual activity with Skepinone-L [27] 96% | % Residual activity with Skepinone-L [28] 106% | % Residual activity with Skepinone-L [29] 83% | % Residual activity with Skepinone-L [30] 87% | % Residual activity with Skepinone-L [31] 3% | % Residual activity with Skepinone-L [32] 80% | % Residual activity with Skepinone-L [33] 97% | % Residual activity with Skepinone-L [34] 99% | % Residual activity with Skepinone-L [35] 97% | % Residual activity with Skepinone-L [36] 56% | % Residual activity with Skepinone-L [37] 115% | % Residual activity with Skepinone-L [38] 119% | % Residual activity with Skepinone-L [39] 101% | % Residual activity with Skepinone-L [40] 96% | inhibition [41] 5.52% | inhibition [42] 4.37% | inhibition [43] 30.4% | inhibition [44] 45.5% | inhibition [45] 40% | inhibition [46] 11.2% | inhibition [47] -3.22% | inhibition [48] 48.5% | % Residual activity with Skepinone-L [49] 97%
